Laboratory results: patent publication US8071763B2, “Methods for treatment of nocturia” (Daiichi Sankyo Company, Limited, priority 2002, dated 2011)
Marks after values point to notes of the source that are not given here.

Tested on: patients with nocturia
Assay: Non-randomized trial treatment with loxoprofen in patients with nocturia; voids/night outcome assessed as excellent, improved, unchanged or worsened
Assay type: in vivo, human
Conditions: 60 mg prior to sleeping
Method: One hundred forty one patients (135 men) aged 49 to 89 (mean 70.5) years with LUTS and =2 voids per night were enrolled in the study. Their main diseases were BPH (n=93), prostate cancer (n=24) and neurogenic bladder (NB) (n=13); 11 had other diseases. […] Patients who had asthma, gastrointestinal disorders, renal dysfunction and allergies to loxoprofen were excluded. Patients took a single 60 mg loxoprofen tablet prior to sleeping at night for 4 to 14 days initially concurrently with their treatments for their main diseases. Numbers of voids/night as reported by each patient were evaluated and treatment outcome was assessed as either excellent (nocturia disappeared or decreased by =2 voids/night), improved (nocturia decreased by 1 void/night), unchanged or worsened (nocturia increased).

[1] = 108 patients who did not respond to anticholinergic drugs
[2] = Antidiuretic hormone non-responder, 3 patients
[3] = Antidiuretic hormone responder, 6 patients
[4] = BPH, 93 patients, listed as Loxoprofen
[5] = Neurogenic bladder, 13 patients
[6] = Neurogenic bladder, 13 patients, listed as Loxoprofen
[7] = Post-thermotherapy, 19 patients
[8] = Prostate cancer, 24 patients, listed as Loxoprofen
[9] = Prostate cancer, hormone therapy, 15 patients
[10] = Prostate cancer, post-prostatectomy (radical), 5 patients

**Q.** Which “Onset of changes in patients' symptoms” value does the source give for `CC(C(=O)O)c1ccc(CC2CCCC2=O)cc1` (stereo not shown) [loxoprofen, loxoprofen sodium] here?
**A.** starting from the first night of therapy

**Q.** What about the Excellent responder rate (85 patients with more frequent nocturia than 2 to 3 episodes at baseline) of the same compound?
**A.** 46%

**Q.** And the Excellent rate [1]?
**A.** 44%

**Q.** And the Improved rate [1]?
**A.** 38%

**Q.** And the “Nocturia improved or disappeared, % of patients overall” value (141 patients)?
**A.** 72%

**Q.** What about the “Improved, % of patients” value [2] of the same compound?
**A.** (33%)

**Q.** And the “Improved, no. of patients” value [2]?
**A.** 1

**Q.** And the “Unchanged, % of patients” value [2]?
**A.** 67%

**Q.** And the “Unchanged, no. of patients” value [2]?
**A.** 2

**Q.** And the “Excellent, % of patients” value [3]?
**A.** (17%)

**Q.** And the “Excellent, no. of patients” value [3]?
**A.** 1

**Q.** And the “Improved, % of patients” value [3]?
**A.** (67%)

**Q.** What about the “Improved, no. of patients” value [3] of the same compound?
**A.** 4

**Q.** What about the “Unchanged, % of patients” value [3] of the same compound?
**A.** 17%

**Q.** What about the “Unchanged, no. of patients” value [3] of the same compound?
**A.** 1

**Q.** What about the “Excellent, % of patients” value (BPH, 93 patients) of the same compound?
**A.** (39%)

**Q.** What about the “Excellent, no. of patients” value (BPH, 93 patients) of the same compound?
**A.** 36^

**Q.** What about the “Improved, % of patients” value (BPH, 93 patients) of the same compound?
**A.** (34%)

**Q.** And the “Improved, no. of patients” value (BPH, 93 patients)?
**A.** 32^

**Q.** And the “Unchanged, % of patients” value (BPH, 93 patients)?
**A.** (23%)

**Q.** What about the “Unchanged, no. of patients” value (BPH, 93 patients) of the same compound?
**A.** 21^

**Q.** What about the “Worsened, % of patients” value (BPH, 93 patients) of the same compound?
**A.** (4%)

**Q.** And the “Worsened, no. of patients” value (BPH, 93 patients)?
**A.** 4

**Q.** What about the “Excellent, % of patients” value [4] of the same compound?
**A.** 39%

**Q.** What about the “Improved, % of patients” value [4] of the same compound?
**A.** 34%

**Q.** What about the “Excellent, % of patients” value (Female, 6) of the same compound?
**A.** (33%)

**Q.** And the “Excellent, no. of patients” value (Female, 6)?
**A.** 2

**Q.** And the “Improved, % of patients” value (Female, 6)?
**A.** (33%)

**Q.** What about the “Improved, no. of patients” value (Female, 6) of the same compound?
**A.** 2

**Q.** What about the “Unchanged, % of patients” value (Female, 6) of the same compound?
**A.** (33%)

**Q.** What about the “Unchanged, no. of patients” value (Female, 6) of the same compound?
**A.** 2

**Q.** And the “Excellent, % of patients” value (Insomnia, 20 patients)?
**A.** (35%)

**Q.** What about the “Excellent, no. of patients” value (Insomnia, 20 patients) of the same compound?
**A.** 7^

**Q.** And the “Improved, % of patients” value (Insomnia, 20 patients)?
**A.** (40%)

**Q.** What about the “Improved, no. of patients” value (Insomnia, 20 patients) of the same compound?
**A.** 8^

**Q.** What about the “Unchanged, % of patients” value (Insomnia, 20 patients) of the same compound?
**A.** (20%)

**Q.** What about the “Unchanged, no. of patients” value (Insomnia, 20 patients) of the same compound?
**A.** 4^

**Q.** And the “Worsened, % of patients” value (Insomnia, 20 patients)?
**A.** (5%)

**Q.** And the “Worsened, no. of patients” value (Insomnia, 20 patients)?
**A.** 1

**Q.** What about the “Excellent, % of patients” value (Insomnia, 20 patients, listed as Loxoprofen) of the same compound?
**A.** 35%

**Q.** And the “Excellent, no. of patients” value (Interstitial cystitis, 2 patients)?
**A.** 2^¶

**Q.** What about the “Excellent, % of patients” value (Male, 135) of the same compound?
**A.** (36%)

**Q.** What about the “Excellent, no. of patients” value (Male, 135) of the same compound?
**A.** 49

**Q.** And the “Improved, % of patients” value (Male, 135)?
**A.** (36%)

**Q.** And the “Improved, no. of patients” value (Male, 135)?
**A.** 48

**Q.** And the “Unchanged, % of patients” value (Male, 135)?
**A.** (24%)

**Q.** And the “Unchanged, no. of patients” value (Male, 135)?
**A.** 32

**Q.** And the “Worsened, % of patients” value (Male, 135)?
**A.** (4%)

**Q.** And the “Worsened, no. of patients” value (Male, 135)?
**A.** 6

**Q.** And the “Excellent, % of patients” value [5]?
**A.** (69%)

**Q.** What about the “Excellent, no. of patients” value [5] of the same compound?
**A.** 9^‡

**Q.** What about the “Improved, % of patients” value [5] of the same compound?
**A.** (8%)

**Q.** And the “Improved, no. of patients” value [5]?
**A.** 1^¶

**Q.** What about the “Unchanged, % of patients” value [5] of the same compound?
**A.** (15%)

**Q.** What about the “Unchanged, no. of patients” value [5] of the same compound?
**A.** 2^¶

**Q.** And the “Worsened, % of patients” value [5]?
**A.** (8%)

**Q.** And the “Worsened, no. of patients” value [5]?
**A.** 1

**Q.** And the “Excellent, % of patients” value [6]?
**A.** 69%

**Q.** What about the “Improved, % of patients” value [6] of the same compound?
**A.** 8%

**Q.** And the “Excellent, % of patients” value (Nocturnal polyuria, 7 patients)?
**A.** (14%)

**Q.** And the “Excellent, no. of patients” value (Nocturnal polyuria, 7 patients)?
**A.** 1^

**Q.** What about the “Improved, % of patients” value (Nocturnal polyuria, 7 patients) of the same compound?
**A.** (71%)

**Q.** And the “Improved, no. of patients” value (Nocturnal polyuria, 7 patients)?
**A.** 5^

**Q.** What about the “Unchanged, % of patients” value (Nocturnal polyuria, 7 patients) of the same compound?
**A.** (14%)

**Q.** What about the “Unchanged, no. of patients” value (Nocturnal polyuria, 7 patients) of the same compound?
**A.** 1^

**Q.** What about the “Excellent, % of patients” value (Nocturnal polyuria, 7 patients, listed as Loxoprofen) of the same compound?
**A.** 14%

**Q.** And the “Excellent, no. of patients” value (Post-TURP, 18 patients)?
**A.** 8

**Q.** What about the “Improved, % of patients” value (Post-TURP, 18 patients) of the same compound?
**A.** (27%)

**Q.** What about the “Improved, no. of patients” value (Post-TURP, 18 patients) of the same compound?
**A.** 5

**Q.** And the “Unchanged, % of patients” value (Post-TURP, 18 patients)?
**A.** 22%

**Q.** And the “Unchanged, no. of patients” value (Post-TURP, 18 patients)?
**A.** 4

**Q.** What about the “Worsened, % of patients” value (Post-TURP, 18 patients) of the same compound?
**A.** 6%

**Q.** And the “Worsened, no. of patients” value (Post-TURP, 18 patients)?
**A.** 1

**Q.** And the “Excellent, no. of patients” value [7]?
**A.** 8

**Q.** And the “Improved, % of patients” value [7]?
**A.** (26%)

**Q.** What about the “Improved, no. of patients” value [7] of the same compound?
**A.** 5

**Q.** What about the “Unchanged, % of patients” value [7] of the same compound?
**A.** 32%

**Q.** What about the “Unchanged, no. of patients” value [7] of the same compound?
**A.** 6

**Q.** What about the “Excellent, % of patients” value (Prostate cancer, 24 patients) of the same compound?
**A.** (29%)

**Q.** What about the “Excellent, no. of patients” value (Prostate cancer, 24 patients) of the same compound?
**A.** 7^

**Q.** What about the “Improved, % of patients” value (Prostate cancer, 24 patients) of the same compound?
**A.** (33%)

**Q.** And the “Improved, no. of patients” value (Prostate cancer, 24 patients)?
**A.** 8^

**Q.** And the “Unchanged, % of patients” value (Prostate cancer, 24 patients)?
**A.** (33%)

**Q.** What about the “Unchanged, no. of patients” value (Prostate cancer, 24 patients) of the same compound?
**A.** 8^

**Q.** And the “Worsened, % of patients” value (Prostate cancer, 24 patients)?
**A.** (4%)

**Q.** What about the “Worsened, no. of patients” value (Prostate cancer, 24 patients) of the same compound?
**A.** 1

**Q.** What about the “Excellent, % of patients” value [8] of the same compound?
**A.** 29%

**Q.** What about the “Improved, % of patients” value [8] of the same compound?
**A.** 33%

**Q.** And the “Excellent, no. of patients” value [9]?
**A.** 5^

**Q.** What about the “Improved, no. of patients” value [9] of the same compound?
**A.** 3^

**Q.** What about the “Unchanged, no. of patients” value [9] of the same compound?
**A.** 6^

**Q.** And the “Worsened, no. of patients” value [9]?
**A.** 1

**Q.** And the “Excellent, no. of patients” value [10]?
**A.** 1^

**Q.** What about the “Improved, no. of patients” value [10] of the same compound?
**A.** 2^
